ChEMBL document CHEMBL2390873, “Rational design, synthesis and QSAR study of vasorelaxant active 3-pyridinecarbonitriles incorporating 1H-benzimidazol-2-yl function” (Eur J Med Chem, 2013)

Test system: Aorta
Assay: Vasorelaxant activity in Wister rat isolated thoracic aortic rings assessed as reduction of norepinephrine hydrochloride-induced contraction
Format: functional, tissue-based

Row | Structure (SMILES) | IC50 [µM]
1 | COc1nc(-c2nc3ccccc3n2C)cc(-c2ccccc2)c1C#N | 300
2 | CCOc1nc(-c2nc3ccccc3n2C)cc(-c2ccccc2)c1C#N | 364
3 | COc1nc(-c2nc3ccccc3[nH]2)cc(-c2ccc(Cl)cc2)c1C#N | 286
4 | COc1nc(-c2nc3ccccc3n2C)cc(-c2ccc(Cl)cc2)c1C#N | 145
5 | CCOc1nc(-c2nc3ccccc3n2C)cc(-c2ccc(Cl)cc2)c1C#N | 293
6 | COc1nc(-c2nc3ccccc3n2C)cc(-c2ccc(Cl)cc2Cl)c1C#N | 214
7 | CCOc1nc(-c2nc3ccccc3n2C)cc(-c2ccc(Cl)cc2Cl)c1C#N | 305
8 | COc1nc(-c2nc3ccccc3n2C)cc(-c2ccc(F)cc2)c1C#N | 343
9 | CCOc1nc(-c2nc3ccccc3n2C)cc(-c2ccc(F)cc2)c1C#N | 362
10 | COc1nc(-c2nc3ccccc3n2C)cc(-c2ccc(C)cc2)c1C#N | 295
11 | CCOc1nc(-c2nc3ccccc3n2C)cc(-c2ccc(C)cc2)c1C#N | 400
12 | COc1ccc(-c2cc(-c3nc4ccccc4n3C)nc(OC)c2C#N)cc1 | 210
13 | CCOc1nc(-c2nc3ccccc3n2C)cc(-c2ccc(OC)cc2)c1C#N | 436
14 | COc1nc(-c2nc3ccccc3n2C)cc(-c2cccs2)c1C#N | 312
15 | CCOc1nc(-c2nc3ccccc3n2C)cc(-c2cccs2)c1C#N | 249
16 | COc1nc(-c2nc3ccccc3[nH]2)cc(-c2ccc(C)o2)c1C#N | 202
17 | COc1nc(-c2nc3ccccc3n2C)cc(-c2ccc(C)o2)c1C#N | 283
18 | CCOc1nc(-c2nc3ccccc3n2C)cc(-c2ccc(C)o2)c1C#N | 336
